Inconclusive results are not listed. Active and inactive are the calls of the source. How the calls were made is not given here.
test: NIH/3T3 fibroblast cytotoxicity, dose response, cytotoxicity control, cell-based, plate reader, dry powder, set 2 (AID 652280); details: NIH/3T3 mouse fibroblast toxicity, plate reader; at 16 µM (top of the series)

Row | SMILES | activity change, negative = toxicity
1 | Cc1cccc(-c2ccc([C@H]3[C@H](CO)N4CCCCN(C(=O)c5cccnc5)C[C@@H]34)cc2)c1 | -10.6% (inactive)
2 | CC(C)(C)S(=O)N1Cc2cc(C(=O)NCc3ccc4c(c3)OCO4)nc(-c3cccc(-c4cccc(F)c4)c3)c2[C@@H]1CCO (some centres undefined) | -21.2% (inactive)
3 | CN(C)C(=O)c1cccc(-c2ccc([C@@H]3[C@H](CO)N4CCCCN(C(=O)C5CCC5)C[C@@H]34)cc2)c1 | -3.74% (inactive)
4 | CN(C)CC#Cc1cccc(-c2nc(C(=O)N3CCN(C)CC3)cc3c2[C@H](CCO)N(S(=O)C(C)(C)C)C3)c1 (some centres undefined) | 16.4% (inactive)
5 | CN(C)CC#Cc1cccc(-c2nc(C(=O)NCCCN3CCOCC3)cc3c2[C@H](CCO)N(S(=O)C(C)(C)C)C3)c1 (some centres undefined) | 16% (inactive)
6 | Cc1cccc(CN(C)C[C@H]2Oc3c(NC(=O)c4ccncc4)cccc3C(=O)N([C@@H](C)CO)C[C@@H]2C)c1 | -19.1% (inactive)
7 | CN(C)C(=O)c1ccc(-c2ccc([C@H]3[C@H](CO)N4CCCCN(CC5CC5)C[C@@H]34)cc2)cc1 | 24.4% (inactive)
8 | CC(C)N1C[C@@H](CN(C)Cc2ccc(Cl)cc2)Oc2c(NC(=O)c3ccncc3)cccc2C1=O | -18% (inactive)
9 | CC(C)N1C[C@@H](CN(C)Cc2ccc(Cl)cc2)Oc2c(NC(=O)c3ccccc3)cccc2C1=O | 9.38% (inactive)
10 | CN(C)CC#Cc1cccc(-c2nc(C(=O)N[C@@H]3CCN(Cc4ccccc4)C3)cc3c2[C@@H](CCO)N(S(=O)C(C)(C)C)C3)c1 (some centres undefined) | 0.065% (inactive)
11 | COc1ccccc1CN(C)C[C@H]1Oc2c(NC(=O)c3ccncc3)cccc2C(=O)N([C@@H](C)CO)C[C@@H]1C | -28.8% (inactive)
12 | C[C@H]1CN([C@@H](C)CO)C(=O)c2cccc(NC(=O)c3ccncc3)c2O[C@@H]1CN(C)Cc1ccc(Cl)cc1Cl | -13.3% (inactive)
13 | C[C@H]1CN([C@@H](C)CO)C(=O)c2cccc(NC(=O)c3ccncc3)c2O[C@@H]1CN(C)Cc1ccc(F)c(Cl)c1 | -32.5% (inactive)
14 | COc1cccc(CN(C)C[C@H]2Oc3c(NC(=O)c4ccncc4)cccc3C(=O)N([C@@H](C)CO)C[C@@H]2C)c1 | 6.03% (inactive)
15 | CN(C)C(=O)c1cccc(-c2ccc([C@@H]3[C@@H](CO)N4CCCCN(C(=O)C5CCC5)C[C@@H]34)cc2)c1 | 0.445% (inactive)
16 | COC[C@H](C)N1C[C@H](C)[C@@H](CN(C)Cc2ccc(Cl)cc2)Oc2c(NC(=O)c3ccncc3)cccc2C1=O | 2.38% (inactive)
17 | CC(C)N1C[C@@H](C)[C@H](CN(C)C(=O)OC(C)(C)C)Oc2c(C(=O)O)cccc2C1=O | 14.1% (inactive)
18 | CC(C)N1C[C@@H](CN(C)CCc2ccc(Cl)cc2)Oc2c(NC(=O)c3ccncc3)cccc2C1=O | -32% (inactive)
19 | C[C@@H]1CN([C@@H](C)CO)C(=O)c2cc(-c3cncnc3)cnc2O[C@H]1CN(C)Cc1ccc(Oc2ccccc2)cc1 | -26.5% (inactive)
20 | CC(C)N1C[C@H](C)[C@@H](CN(C)C(=O)OC(C)(C)C)Oc2c(cccc2-c2nn[nH]n2)C1=O | 34.3% (inactive)
21 | CC(C)N1CC[C@H](CN(C)Cc2ccc(Oc3ccccc3)cc2)Oc2c(NC(=O)c3ccncc3)cccc2C1=O | -22.1% (inactive)
22 | CC(C)N1C[C@@H](CN(C)Cc2ccc(Cl)cc2)Oc2c(C(=O)Nc3ccncc3)cccc2C1=O | -18.4% (inactive)

Row | SMILES | activity change, negative = toxicity
23 | CN(C)CC#Cc1cccc(-c2nc(C(=O)NCc3ccc(Oc4ccccc4)cc3)cc3c2[C@@H](CCO)N(S(=O)C(C)(C)C)C3)c1 (some centres undefined) | 31.3% (inactive)
24 | Cc1ccc(CN(C)C[C@H]2Oc3c(NC(=O)c4ccncc4)cccc3C(=O)N([C@@H](C)CO)C[C@@H]2C)cc1 | -16.5% (inactive)
25 | CC(C)N1CC2(CN(Cc3ccccc3)C2)Oc2c(NC(=O)c3ccncc3)cccc2C1=O | -2.24% (inactive)
26 | C[C@H]1CN([C@@H](C)CO)C(=O)c2cccc(NC(=O)c3ccncc3)c2O[C@@H]1CN(C)Cc1ccc(F)cc1Cl | -10.1% (inactive)
27 | CC(C)(C)[S@](=O)N1Cc2cc(C(=O)NCc3ccc4c(c3)OCO4)nc(-c3cccc(-c4ccncc4)c3)c2[C@@H]1CCO | -21.4% (inactive)
28 | CN(C)CC#Cc1cccc(-c2nc(C(=O)N3CCN(Cc4ccccc4)CC3)cc3c2[C@H](CCO)N(S(=O)C(C)(C)C)C3)c1 (some centres undefined) | -3.09% (inactive)
29 | CC(C)N1C[C@H](C)[C@@H](CN(C)Cc2ccc(Oc3ccccc3)cc2)Oc2c(cccc2-c2nn[nH]n2)C1=O | 28.7% (inactive)
30 | CC(C)N1C[C@@H](CN(C)Cc2ccc(Cl)cc2)Oc2c(NC(=O)c3ccnn3C)cccc2C1=O | 5.57% (inactive)
31 | O=C(Cn1ccnc1[N+](=O)[O-])NCc1ccccc1 | 17.4% (inactive)
32 | C[C@H]1CN([C@@H](C)CO)C(=O)c2cccc(NC(=O)c3ccncc3)c2O[C@@H]1CN(C)Cc1cccc(C(F)(F)F)c1 | -10.7% (inactive)
33 | CC(C)N1C[C@H](C)[C@@H](CN(C)Cc2ccc(Cl)cc2)Oc2c(NC(=O)c3ccncc3)cccc2C1=O | -13.4% (inactive)
34 | CN(C)C(=O)c1cccc(-c2ccc([C@@H]3[C@@H](CO)N4CCCCN(C(=O)C5CCC5)C[C@H]34)cc2)c1 | 5.21% (inactive)
35 | CCC(=O)N1CC[C@@H]2[C@H]1c1cc(Br)ccc1N(C)[C@@H]2CO | -1.86% (inactive)
36 | COc1ccc(CCN(C)C(=O)C2CCCN(Cc3ccc(OC)c(OC)c3)C2)cc1OC (centres undefined) | 6.14% (inactive)
37 | Cc1ccccc1-c1ccc([C@H]2[C@H](CO)N3CCCCN(C(=O)c4cccnc4)C[C@@H]23)cc1 | -15% (inactive)
38 | O=C(CN1CCOCC1)N1CCCCN2[C@@H](CO)[C@H](c3ccc(-c4ccccc4)cc3)[C@@H]2C1 | -1.37% (inactive)
39 | CC(C)N1C[C@@H](C)[C@H](CN(C)Cc2ccc(OCCCC(F)(F)C(F)(F)C(F)(F)C(F)(F)C(F)(F)C(F)(F)C(F)(F)C(F)(F)F)cc2)Oc2c(NC(=O)c3ccncc3)cccc2C1=O | 22.1% (inactive)
40 | COCC(=O)N1CCCCN2[C@@H](CO)[C@H](c3ccc(-c4cccc(C)c4)cc3)[C@@H]2C1 | -12.3% (inactive)
41 | CC(C)N1CC2(CN(Cc3ccc(F)cc3)C2)Oc2c(NC(=O)c3ccncc3)cccc2C1=O | -0.418% (inactive)
42 | CC(C)N1C[C@H](C)[C@@H](CN(C)Cc2ccc(Cl)cc2)Oc2c(cccc2-c2nnn(-c3ccncc3)n2)C1=O | 65.7% (inactive)
43 | CN1CCCCN2[C@@H](CO)[C@H](c3ccc(Br)cc3)[C@@H]2C1 | -2.42% (inactive)
44 | C[C@H]1CN([C@@H](C)CO)C(=O)c2cccc(NC(=O)c3ccncc3)c2O[C@@H]1CN(C)Cc1cc(Cl)ccc1Cl | 3.82% (inactive)

Row | SMILES | activity change, negative = toxicity
45 | CC(C)N1C[C@@H](C)[C@H](CN(C)C(=O)OC(C)(C)C)Oc2c(C(=O)Nc3ccncc3)cccc2C1=O | -10.9% (inactive)
46 | CN(C)C(=O)c1cccc(-c2ccc([C@H]3[C@H](CO)N4CCCCN(Cc5cccnc5)C[C@@H]34)cc2)c1 | -3% (inactive)
47 | CC(C)N1C(=O)c2cccc(NC(=O)c3ccncc3)c2O[C@H](CN(C)Cc2ccc(Cl)cc2)[C@H]1C | -1.14% (inactive)
48 | CC(C)N1C[C@H](CN(C)Cc2ccc(Cl)cc2)Oc2c(NC(=O)c3ccncc3)cccc2C1=O | -35.4% (inactive)
49 | C[C@@H]1CCCCO[C@H](CN(C)C(=O)Nc2cccc3ccccc23)[C@@H](C)CN([C@H](C)CO)C(=O)c2cc(N(C)C)ccc2O1 | -0.649% (inactive)
50 | CN(C)C(=O)c1cccc(-c2ccc([C@H]3[C@H]4CN(C(=O)C5CCC5)CCCCN4[C@H]3CO)cc2)c1 | 24.3% (inactive)
51 | CN(C)CC#Cc1cccc(-c2nc(C(=O)NCc3ccc4c(c3)OCO4)cc3c2[C@H](CCO)N(S(=O)C(C)(C)C)C3)c1 (some centres undefined) | 6.62% (inactive)
52 | CN(C)CC#Cc1cccc(-c2nc(C(=O)N3CCN(C)CC3)cc3c2[C@@H](CCO)N(S(=O)C(C)(C)C)C3)c1 (some centres undefined) | 18.9% (inactive)
53 | COC[C@H](C)N1C[C@H](C)[C@@H](CN(C)Cc2ccc(Oc3ccccc3)cc2)Oc2c(NC(=O)c3ccncc3)cccc2C1=O | 128% (inactive)
54 | C[C@@H](CO)N1CC[C@H](CNC(=O)OC(C)(C)C)Oc2c(cccc2[N+](=O)[O-])C1=O | 16.7% (inactive)
55 | CC(C)N1C[C@@H](C)[C@H](CN(C)C(=O)OC(C)(C)C)Oc2c(C(N)=O)cccc2C1=O | 12.8% (inactive)
56 | CC(C)N1C[C@@H](CN(C)Cc2ccc(Cl)cc2)Oc2c(NC(=O)c3ncn[nH]3)cccc2C1=O | 0.096% (inactive)
57 | CC(C)N1CC2(CN(C(=O)c3ccc(Cl)cc3)C2)Oc2c(NC(=O)c3ccncc3)cccc2C1=O | 10.5% (inactive)
58 | CC(C)(C)S(=O)N1Cc2cc(C(=O)NCc3ccc4c(c3)OCO4)nc(-c3cccc(-c4cccc(F)c4)c3)c2[C@H]1CCO (some centres undefined) | 12.7% (inactive)
59 | CC(C)N1CC2(CN(Cc3ccccc3F)C2)Oc2c(NC(=O)c3ccncc3)cccc2C1=O | 6.11% (inactive)
60 | CC(C)(C)S(=O)N1Cc2cc(C(=O)NCc3ccc4c(c3)OCO4)nc(-c3cccc(C#CCC4CCCC4)c3)c2[C@H]1CCO (some centres undefined) | 96.9% (inactive)
61 | COCCNC(=O)c1cc2c(c(-c3cccc(C#CCN(C)C)c3)n1)[C@@H](CCO)N(S(=O)C(C)(C)C)C2 (some centres undefined) | 5.61% (inactive)
62 | CN(C)C(=O)c1cccc(-c2ccc([C@H]3[C@@H](CO)N4CCCCN(C(=O)C5CCCC5)C[C@@H]34)cc2)c1 | 28.8% (inactive)
63 | CC(C)N1C[C@@H](CN(C)Cc2ccc(Cl)cc2)Oc2c(C(=O)Nc3ccnnc3)cccc2C1=O | -4.49% (inactive)
64 | C[C@H]1CN([C@@H](C)CO)C(=O)c2cccc(NC(=O)c3ccncc3)c2O[C@@H]1CN(C)Cc1ccccc1C(F)(F)F | 14.1% (inactive)

Source: PubChem BioAssay AID652280 (Broad Institute, 2013)
